Measured values published in patent US12365655B2, “Compounds” (CTXT PTY LTD, priority 2018, dated 2025).

Key:
TIP60-KAT5 = TIP60-KAT5 (Homo sapiens, UniProt Q92993); assay: Acetyltransferase biochemical assay (AlphaScreen), KAT5
HBO-KAT7 = HBO-KAT7 (Homo sapiens, UniProt O95251); assay: Acetyltransferase biochemical assay (AlphaScreen), KAT7
MOZ-KAT6A = MOZ-KAT6A (Homo sapiens, UniProt Q92794, A567V); assay: Acetyltransferase biochemical assay (AlphaScreen), KAT6A
MOZ-KAT6A, sequence (Q92794 with tags, fused parts or gaps A567V): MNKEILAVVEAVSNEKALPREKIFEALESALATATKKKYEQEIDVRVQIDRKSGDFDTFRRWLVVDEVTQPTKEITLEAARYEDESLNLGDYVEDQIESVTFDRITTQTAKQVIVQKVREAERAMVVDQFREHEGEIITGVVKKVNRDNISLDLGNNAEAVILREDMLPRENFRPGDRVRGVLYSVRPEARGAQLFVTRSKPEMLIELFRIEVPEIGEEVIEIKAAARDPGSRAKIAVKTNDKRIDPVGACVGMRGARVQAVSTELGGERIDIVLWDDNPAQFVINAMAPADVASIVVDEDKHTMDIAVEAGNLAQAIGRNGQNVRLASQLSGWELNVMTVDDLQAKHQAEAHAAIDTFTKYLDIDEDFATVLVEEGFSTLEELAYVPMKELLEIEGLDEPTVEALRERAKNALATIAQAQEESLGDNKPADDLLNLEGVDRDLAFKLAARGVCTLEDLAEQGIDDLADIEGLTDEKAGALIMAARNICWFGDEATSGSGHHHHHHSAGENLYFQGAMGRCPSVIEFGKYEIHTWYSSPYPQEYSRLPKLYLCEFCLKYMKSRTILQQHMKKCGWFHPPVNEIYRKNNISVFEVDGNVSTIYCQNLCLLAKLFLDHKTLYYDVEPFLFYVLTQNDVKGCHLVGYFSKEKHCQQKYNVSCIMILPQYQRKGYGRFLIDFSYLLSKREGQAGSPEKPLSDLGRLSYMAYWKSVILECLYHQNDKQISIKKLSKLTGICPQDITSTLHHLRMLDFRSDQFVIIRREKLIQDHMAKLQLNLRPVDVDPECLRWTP

HBO-KAT7, sequence (O95251 with tags, fused parts or gaps): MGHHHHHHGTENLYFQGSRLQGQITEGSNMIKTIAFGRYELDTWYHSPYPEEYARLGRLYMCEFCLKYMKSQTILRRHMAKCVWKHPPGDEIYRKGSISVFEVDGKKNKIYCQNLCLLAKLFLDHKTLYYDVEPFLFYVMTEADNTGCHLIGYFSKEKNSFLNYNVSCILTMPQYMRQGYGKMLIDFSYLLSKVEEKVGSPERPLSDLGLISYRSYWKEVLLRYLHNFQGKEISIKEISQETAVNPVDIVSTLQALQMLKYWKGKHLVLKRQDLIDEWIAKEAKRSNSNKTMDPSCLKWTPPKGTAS
TIP60-KAT5, sequence (Q92993 with tags, fused parts or gaps isoform Q92993-2): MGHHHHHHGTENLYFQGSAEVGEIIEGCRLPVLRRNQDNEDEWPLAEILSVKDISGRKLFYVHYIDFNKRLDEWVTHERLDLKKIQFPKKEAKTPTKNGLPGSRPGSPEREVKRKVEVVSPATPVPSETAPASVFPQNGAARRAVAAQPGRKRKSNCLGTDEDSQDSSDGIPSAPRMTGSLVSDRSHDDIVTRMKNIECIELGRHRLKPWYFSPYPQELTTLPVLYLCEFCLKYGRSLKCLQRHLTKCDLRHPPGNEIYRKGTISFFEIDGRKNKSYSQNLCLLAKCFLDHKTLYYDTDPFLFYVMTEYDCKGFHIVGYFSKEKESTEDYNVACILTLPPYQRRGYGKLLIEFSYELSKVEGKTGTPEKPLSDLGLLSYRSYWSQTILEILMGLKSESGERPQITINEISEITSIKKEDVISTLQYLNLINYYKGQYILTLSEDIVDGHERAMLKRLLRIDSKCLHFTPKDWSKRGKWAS

Structure (SMILES)	IC50 (TIP60-KAT5) [µM]	IC50 (HBO-KAT7) [µM]	IC50 (MOZ-KAT6A) [µM]
COCc1ccccc1S(=O)(=O)Nc1noc2cccc(Cl)c12 [Example 1, N-(4-chlorobenzo [d]isoxazol-3-yl)-2-(methoxymethyl) benzenesulfonamide]	> 125	53.9	91.4
COCc1cccc(S(=O)(=O)Nc2noc3cccc(Cl)c23)c1 [Example 2, N-(4-chlorobenzo [d]isoxazol-3-yl)-3-(methoxymethyl) benzenesulfonamide]	> 125	15.5	94.6
COc1c(S(=O)(=O)Nc2noc3cccc(Cl)c23)ccc(Cl)c1Cl [Example 3, 3,4-dichloro-N-(4-chlorobenzo[d]isoxazol-3-yl)-2-methoxy benzenesulfonamide]	65.1	23.2	23.8
O=S(=O)(Nc1noc2cccc(Cl)c12)c1ccccc1Oc1ccccc1 [Example 4, N-(4-chlorobenzo [d]isoxazol-3-yl)-2-phenoxybenzene sulfonamide]	35.2	5.17	6.22
COc1ccc(F)cc1S(=O)(=O)Nc1noc2cccc(Cl)c12 [Example 5, N-(4-chlorobenzo [d]isoxazol-3-yl)-5-fluoro-2-methoxybenzene sulfonamide]	114	6.01	31.3
Cn1nc2cccc(S(=O)(=O)Nc3noc4cccc(Cl)c34)c2n1 [Example 6, N-(4-chlorobenzo [d]isoxazol-3-yl)-2-methyl-2H-benzo[d][1,2,3]triazole-4-sulfonamide]	94.9	6.28	30.2
O=S(=O)(Nc1noc2cccc(Cl)c12)c1cccc2nsnc12 [Example 7, N-(4-chlorobenzo [d]isoxazol-3-yl)benzo[c][1,2,5]thiadiazole-4-sulfonamide]	> 125	14.2	62.7
O=S(=O)(Nc1noc2cccc(Cl)c12)c1ccc2nc(O)oc2c1 [Example 8, N-(4-chlorobenzo [d]isoxazol-3-yl)-2-hydroxybenzo[d]oxazole-6-sulfonamide]	> 125	> 125	113
O=S(=O)(Nc1noc2cccc(Cl)c12)c1ccc(OCc2ccccc2)cc1 [Example 9, 4-(benzyloxy)-N-(4-chlorobenzo[d]isoxazol-3-yl)benzenesulfonamide]	41	8.42	26.8
O=S(=O)(Nc1noc2cccc(Cl)c12)c1cc(OCC(F)(F)F)ccc1OCC(F)(F)F [Example 10, N-(4-chlorobenzo [d]isoxazol-3-yl)-2,5-bis(2,2,2-trifluoroethoxy) benzenesulfonamide]	93.7	54.1	17.5
COC(=O)c1ccccc1S(=O)(=O)Nc1noc2cccc(Cl)c12 [Example 12, methyl 2-(N-(4-chlorobenzo[d]isoxazol-3-yl)sulfamoyl)benzoate]	> 125	49.9	> 125
Cn1c(=O)oc2cc(S(=O)(=O)Nc3noc4cccc(Cl)c34)ccc21 [Example 13, N-(4-chlorobenzo [d]isoxazol-3-yl)-3-methyl-2-oxo-2,3-dihydrobenzo[d]oxazole-6-sulfonamide]	120	63.8	63.9
O=S(=O)(Nc1noc2cccc(Cl)c12)c1ccc2c(c1)OCCCO2 [Example 14, N-(4-chlorobenzo [d]isoxazol-3-yl)-3,4-dihydro-2H-benzo[b][1,4]dioxepine-7-sulfonamide]	> 125	15.2	45
O=S(=O)(Nc1noc2cccc(Cl)c12)c1cccc2scnc12 [Example 15, N-(4-chlorobenzo [d]isoxazol-3-yl)benzo [d]thiazole-4-sulfonamide]	7.29	1.46	1.91
O=S(=O)(Nc1noc2cccc(Cl)c12)c1cccc2nonc12 [Example 16, N-(4-chlorobenzo [d]isoxazol-3-yl)benzo[c][1,2,5]oxadiazole-4-sulfonamide]	30.2	9.63	15.1
O=S(=O)(Nc1noc2cccc(Cl)c12)c1ccc(Oc2ccc(F)cc2)cc1 [Example 17, N-(4-chlorobenzo[d]isoxazol-3-yl)-4-(4-fluorophenoxy) benzenesulfonamide]	27.7	14.6	11.8
CC(C)c1ccc(S(=O)(=O)Nc2noc3cccc(Cl)c23)cc1 [Example 22, N-(4-chlorobenzo [d]isoxazol-3-yl)-4-isopropylbenzene sulfonamide]	38.9	6.3	5.21
O=S(=O)(Nc1noc2cccc(Cl)c12)c1ccc(OC(F)(F)F)cc1 [Example 23, N-(4-chlorobenzo [d]isoxazol-3-yl)-4-(trifluoromethoxy) benzenesulfonamide]	72.9	23.9	21.8
CC(C)Oc1ccc(S(=O)(=O)Nc2noc3cccc(Cl)c23)cc1 [Example 24, N-(4-chlorobenzo [d]isoxazol-3-yl)-4-isopropoxybenzene sulfonamide]	> 125	33.9	> 125
CC(C)(C)c1ccc(S(=O)(=O)Nc2noc3cccc(Cl)c23)cc1 [Example 25, 4-(tert-butyl)-N-(4-chlorobenzo[d]isoxazol-3-yl)benzenesulfonamide]	120	41.9	33.2
Cc1ccc(S(=O)(=O)Nc2noc3cccc(Cl)c23)cc1 [Example 27, N-(4-chlorobenzo [d]isoxazol-3-yl)-4-methylbenzenesulfonamide]	> 125	32.1	71.5
O=S(=O)(Nc1noc2cccc(Cl)c12)c1ccc(-n2cccn2)cc1 [Example 28, N-(4-chlorobenzo [d]isoxazol-3-yl)-4-(1H-pyrazol-1-yl)benzenesulfonamide]	> 125	54.8	117
O=S(=O)(Nc1noc2cccc(Cl)c12)c1c(F)cccc1F [Example 29, N-(4-chlorobenzo [d]isoxazol-3-yl)-2,6-difluorobenzene sulfonamide]	> 125	94.1	> 125
O=S(=O)(Nc1noc2cccc(Cl)c12)c1ccccc1F [Example 30, N-(4-chlorobenzo [d]isoxazol-3-yl)-2-fluorobenzenesulfonamide]	> 125	11.5	89.5
Cc1ccc(S(=O)(=O)Nc2noc3cccc(Cl)c23)cc1Cl [Example 31, 3-chloro-N-(4-chlorobenzo[d]isoxazol-3-yl)-4-methylbenzenesulfonamide]	> 125	53.6	36.1
O=S(=O)(Nc1noc2cccc(Cl)c12)c1ccc(Br)cc1OC(F)(F)F [Example 32, 4-bromo-N-(4-chlorobenzo[d]isoxazol-3-yl)-2-(trifluoromethoxy) benzenesulfonamide]	56	14.9	31.1
COc1cc(C)c(C)cc1S(=O)(=O)Nc1noc2cccc(Cl)c12 [Example 33, N-(4-chlorobenzo [d]isoxazol-3-yl)-2-methoxy-4,5-dimethylbenzenesulfonamide]	90.5	11.4	6.85
